Assay results from PubChem BioAssay (NCI).
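How tested: cells in 96-well plates exposed to compound for 48 hours at five concentrations. TGI is the concentration that stops growth completely.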

Columns and labels:
Assay in all cases: growth of human tumour cells (NCI), 48 h
NCI-H226 lung = tested on: NCI-H226 lung
HT29 colon = tested on: HT29 colon
MOLT-4 leukemia = tested on: MOLT-4 leukemia
NCI-H460 lung = tested on: NCI-H460 lung
HCT-116 colon = tested on: HCT-116 colon
HCC-2998 colon = tested on: HCC-2998 colon
KM12 colon = tested on: KM12 colon
MDA-MB-231 breast = tested on: MDA-MB-231 breast
BT-549 breast = tested on: BT-549 breast
T-47D breast = tested on: T-47D breast
PC-3 prostate = tested on: PC-3 prostate
SK-MEL-2 melanoma = tested on: SK-MEL-2 melanoma
OVCAR-4 ovarian = tested on: OVCAR-4 ovarian
OVCAR-5 ovarian = tested on: OVCAR-5 ovarian
TK-10 renal = tested on: TK-10 renal
SK-MEL-28 melanoma = tested on: SK-MEL-28 melanoma
CAKI-1 renal = tested on: CAKI-1 renal

Compound | TGI (NCI-H226 lung) | TGI (HT29 colon) | TGI (MOLT-4 leukemia) | TGI (NCI-H460 lung) | TGI (HCT-116 colon) | TGI (HCC-2998 colon) | TGI (KM12 colon) | TGI (MDA-MB-231 breast) | TGI (BT-549 breast) | TGI (T-47D breast) | TGI (PC-3 prostate) | TGI (SK-MEL-2 melanoma) | TGI (OVCAR-4 ovarian) | TGI (OVCAR-5 ovarian) | TGI (TK-10 renal) | TGI (SK-MEL-28 melanoma) | TGI (CAKI-1 renal)
COc1ccc(-c2n[nH]c3nc4ccccc4n3c2=O)cc1 | > 100 µM | > 100 µM | > 100 µM | > 100 µM | > 100 µM | > 100 µM | > 100 µM | > 100 µM | > 100 µM | > 100 µM | > 100 µM | > 100 µM | > 100 µM | > 100 µM | > 100 µM | > 100 µM | > 100 µM
N#CC(C#N)=C(N)/C(C#N)=C/c1ccc(O)c(O)c1 | > 100 µM | > 100 µM | > 100 µM | > 100 µM | > 100 µM | > 100 µM | > 100 µM | > 100 µM | > 100 µM | > 100 µM | > 100 µM | > 100 µM | > 100 µM | > 100 µM | > 100 µM | > 100 µM | > 100 µM
COc1cc(/C=C/C(=O)N[C@@H]2C(=O)N3[C@@H]2SC(C)(C)[C@@H]3C(=O)O)ccc1O | > 100 µM | > 100 µM | > 100 µM | > 100 µM | > 100 µM | > 100 µM | > 100 µM | > 100 µM | > 100 µM | > 100 µM | > 100 µM | > 100 µM | > 100 µM | > 100 µM | > 100 µM | > 100 µM | > 100 µM
N#CCc1nc(-c2cc3ccc(O)cc3oc2=O)cs1 | > 100 µM | > 100 µM | > 100 µM | > 100 µM | > 100 µM | > 100 µM | > 100 µM | > 100 µM | > 100 µM | > 100 µM | > 100 µM | 66 µM | > 100 µM | > 100 µM | > 100 µM | > 100 µM | > 100 µM
CNc1ccc(Cl)cc1C(=O)N1CCC[C@H]1CO | > 100 µM | > 100 µM | > 100 µM | > 100 µM | > 100 µM | > 100 µM | > 100 µM | > 100 µM | > 100 µM | > 100 µM | > 100 µM | > 100 µM | > 100 µM | > 100 µM | > 100 µM | > 100 µM | > 100 µM
Cc1cc(=O)[nH]c(Sc2ccc([N+](=O)[O-])cc2[N+](=O)[O-])n1 | 40.9 µM | 19.1 µM | > 100 µM | > 59.5 µM | > 34.6 µM | 30.6 µM | > 67.4 µM | 46.9 µM | 26.8 µM | 43 µM | 49.7 µM | 46.4 µM | > 56.1 µM | 35.2 µM | 29.6 µM | 38.4 µM | 28.9 µM
CNC(=O)OCC1=C(COC(=O)NC)CN(c2ccc(OC)cc2)C1 | 41.1 µM | > 100 µM | > 100 µM | > 100 µM | > 100 µM | > 100 µM | > 100 µM | > 100 µM | > 100 µM | > 100 µM | > 100 µM | > 100 µM | > 100 µM | > 100 µM | > 100 µM | > 100 µM | –
O=C1/C(=C\c2cccc(Oc3ccccc3)c2)SC(c2ccccc2)N1Cc1ccccc1 (configuration not stated) | 90.9 µM | 51.2 µM | 75.7 µM | > 100 µM | 34 µM | > 100 µM | 83.8 µM | > 100 µM | 89 µM | 98.3 µM | – | 45.7 µM | > 100 µM | > 100 µM | 99.5 µM | > 100 µM | > 100 µM
CN(C)c1ccc(C2=C([O-])c3cc(-[n+]4ccccc4)ccc3C2=O)cc1 | > 100 µM | > 100 µM | > 100 µM | > 100 µM | > 100 µM | > 100 µM | > 100 µM | > 100 µM | > 100 µM | – | > 100 µM | – | > 100 µM | > 100 µM | > 100 µM | > 100 µM | > 100 µM
CCOC(=O)n1ccc2c(C(=O)OC)c(C(=O)OC)cc(/C(=C/C(=O)OC)C(=O)OC)c21 | > 100 µM | > 100 µM | > 100 µM | > 100 µM | > 100 µM | > 100 µM | > 100 µM | > 100 µM | > 100 µM | > 100 µM | > 100 µM | > 100 µM | > 100 µM | > 100 µM | > 100 µM | > 100 µM | > 100 µM
O=C(O)c1ccc2[nH]c(=O)oc2c1 | > 100 µM | > 100 µM | > 100 µM | > 100 µM | > 100 µM | – | > 100 µM | > 100 µM | > 100 µM | – | > 100 µM | > 100 µM | – | > 100 µM | > 100 µM | > 100 µM | > 100 µM
O=C(/C=C/c1ccc(O)c(O)c1)O[C@H]1CCCC[C@@H]1OC(=O)/C=C/c1ccc(O)c(O)c1 | – | – | > 100 µM | > 100 µM | 19 µM | 33.7 µM | 73.3 µM | > 100 µM | 63.6 µM | 98.8 µM | > 100 µM | 84.3 µM | > 100 µM | 33.9 µM | 57.7 µM | 44.1 µM | > 100 µM
O=C1C2CCCCC2C(=O)N1n1c(Cc2ccccc2)n[nH]c1=O (configuration not stated) | > 100 µM | > 100 µM | > 100 µM | > 100 µM | > 100 µM | > 100 µM | > 100 µM | > 100 µM | > 100 µM | > 100 µM | > 100 µM | > 100 µM | > 100 µM | > 100 µM | > 100 µM | – | > 100 µM
O=C(Cc1ccccc1)Nc1nc2ccc(Cl)cc2c2nc(-c3ccco3)nn12 | > 82.7 µM | > 100 µM | > 100 µM | > 100 µM | > 100 µM | > 100 µM | > 100 µM | > 100 µM | > 100 µM | > 100 µM | > 100 µM | > 100 µM | – | > 100 µM | > 75.3 µM | > 100 µM | > 100 µM
